Where a name gives a salt, the structure may show the parent alone.

T1 sequence (P20309 whole entry): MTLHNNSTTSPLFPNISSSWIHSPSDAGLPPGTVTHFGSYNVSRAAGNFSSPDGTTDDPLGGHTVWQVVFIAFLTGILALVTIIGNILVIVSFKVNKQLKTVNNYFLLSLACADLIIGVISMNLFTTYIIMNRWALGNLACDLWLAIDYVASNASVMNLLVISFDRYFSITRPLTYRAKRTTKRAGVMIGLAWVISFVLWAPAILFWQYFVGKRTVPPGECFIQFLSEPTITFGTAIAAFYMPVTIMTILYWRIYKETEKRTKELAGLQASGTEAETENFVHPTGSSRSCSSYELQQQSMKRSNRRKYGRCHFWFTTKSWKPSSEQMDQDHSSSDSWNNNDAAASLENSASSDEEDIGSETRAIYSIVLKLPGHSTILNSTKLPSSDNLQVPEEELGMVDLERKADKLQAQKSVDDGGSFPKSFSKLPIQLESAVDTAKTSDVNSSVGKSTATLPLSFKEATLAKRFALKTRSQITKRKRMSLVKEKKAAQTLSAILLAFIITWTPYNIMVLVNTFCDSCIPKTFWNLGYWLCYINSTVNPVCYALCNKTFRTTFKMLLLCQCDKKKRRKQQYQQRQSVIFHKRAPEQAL

One assay concerns the target T1, human muscarinic acetylcholine M3 receptor (Homo sapiens, UniProt P20309).
T1 construct: expressed in transfected cells; host or cells: CHO-K1 (Chinese Hamster Ovary) cell membranes
In words: biochemical. The settings on record: M3 binding IC50. The class given is binding.
On to `Cc1ccc(NC(=O)C[N+]23CCC(CC2)[C@@H](OC(=O)C2(c4ccccc4)CCCCCC2)C3)cn1` [Example 1, (R)-1-[(6-Methyl-pyridin-3-ylcarbamoyl)-methyl]-3-(1-phenyl-cycloheptanecarbonyloxy)-1-azonia-bicyclo[2.2.2]octane chloride], for which the IC50 (in general, the concentration at which inhibition is half-maximal) was under 2 nM.

In turn, `Cc1cncc(NC(=O)C[N+]23CCC(CC2)[C@@H](OC(=O)C2(c4ccccc4)CCCCCC2)C3)n1` [Example 2, (R)-1-[(6-Methyl-pyrazin-2-ylcarbamoyl)-methyl]-3-(1-phenyl-cycloheptanecarbonyloxy)-1-azonia-bicyclo[2.2.2]octane bromide] gave an IC50 of under 2 nM.

For `O=C(C[N+]12CCC(CC1)[C@@H](OC(=O)C1(c3ccccc3)CCCCCC1)C2)Nc1ccc(C(F)(F)F)nn1` [Example 3, (R)-3-(1-Phenyl-cycloheptanecarbonyloxy)-1-[(6-trifluoromethyl-pyridazin-3-ylcarbamoyl)-methyl]-1-azonia-bicyclo[2.2.2]octane bromide], the IC50 lay in the range of 2 to 10 nM.

Molecule `O=C(C[N+]12CCC(CC1)[C@@H](OC(=O)C1(c3ccccc3)CCCCCC1)C2)Nc1noc2ccccc12` [Example 4, (R)-1-(Benzo[d]isoxazol-3-ylcarbamoylmethyl)-3-(1-phenyl-cycloheptanecarbonyloxy)-1-azonia-bicyclo[2.2.2]octane chloride] had an IC50 of under 2 nM.

Molecule `O=C(C[N+]12CCC(CC1)[C@@H](OC(=O)C1(c3cccs3)CCCCCC1)C2)Nc1cccnn1` [Example 5, (R)-1-(Pyridazin-3-ylcarbamoylmethyl)-3-(1-thiophen-2-yl-cycloheptanecarbonyloxy)-1-azonia-bicyclo[2.2.2]octane bromide] displayed an IC50 of under 2 nM.

Take `Cc1cc(NC(=O)C[N+]23CCC(CC2)[C@@H](OC(=O)C2(c4cccs4)CCCCCC2)C3)no1` [Example 6, (R)-1-[(5-Methyl-isoxazol-3-ylcarbamoyl)-methyl]-3-(1-thiophen-2-yl-cycloheptanecarbonyloxy)-1-azonia-bicyclo[2.2.2]octane bromide]: the IC50 is under 2 nM.

On to `Cc1cc(NC(=O)C[N+]23CCC(CC2)[C@@H](OC(=O)C2(c4cccs4)CCCCCC2)C3)on1` [Example 7, (R)-1-[(3-Methyl-isoxazol-5-ylcarbamoyl)-methyl]-3-(1-thiophen-2-yl-cycloheptanecarbonyloxy)-1-azonia-bicyclo[2.2.2]octane bromide], for which the IC50 lay within 2 to 10 nM.

`O=C(C[N+]12CCC(CC1)[C@@H](OC(=O)C1(c3cccs3)CCCCCC1)C2)Nc1cccc(F)c1` [Example 8, (R)-1-[(3-Fluoro-phenylcarbamoyl)-methyl]-3-(1-thiophen-2-yl-cycloheptanecarbonyloxy)-1-azonia-bicyclo[2.2.2]octane bromide] had an IC50 of under 2 nM.

Molecule `Cc1cnc(NC(=O)C[N+]23CCC(CC2)[C@@H](OC(=O)C2(c4cccs4)CCCCCC2)C3)cn1` [Example 9, (R)-1-[(5-Methyl-pyrazin-2-ylcarbamoyl)-methyl]-3-(1-thiophen-2-yl-cycloheptanecarbonyloxy)-1-azonia-bicyclo[2.2.2]octane bromide] returned an IC50 of under 2 nM.

Turning to `O=C(C[N+]12CCC(CC1)[C@@H](OC(=O)C1(c3cccs3)CCCCCC1)C2)Nc1noc2ccccc12` [Example 10, (R)-1-(Benzo[d]isoxazol-3-ylcarbamoylmethyl)-3-(1-thiophen-2-yl-cycloheptanecarbonyloxy)-1-azonia-bicyclo[2.2.2]octane chloride], the IC50 is under 2 nM.

Take `O=C(C[N+]12CCC(CC1)[C@@H](OC(=O)C1(c3ccccc3)CCCCCC1)C2)Nc1ccncc1` [Example 16, (R)-3-(1-Phenyl-cycloheptanecarbonyloxy)-1-(pyridin-4-ylcarbamoylmethyl)-1-azonia-bicyclo[2.2.2]octane chloride]: the IC50 was under 2 nM.

On to `Cc1ccc(NC(=O)C[N+]23CCC(CC2)[C@@H](OC(=O)C2(c4ccccc4)CCCCCC2)C3)nc1` [Example 18, (R)-1-[(5-Methyl-pyridin-2-ylcarbamoyl)-methyl]-3-(1-phenyl-cycloheptanecarbonyloxy)-1-azonia-bicyclo[2.2.2]octane chloride], for which the IC50 was under 2 nM.

The molecule `O=C(C[N+]12CCC(CC1)[C@@H](OC(=O)C1(c3ccccc3)CCCCCC1)C2)Nc1ccncn1` [Example 22, (R)-3-(1-Phenyl-cycloheptanecarbonyloxy)-1-(pyrimidin-4-ylcarbamoylmethyl)-1-azonia-bicyclo[2.2.2]octane chloride] showed an IC50 of under 2 nM.

For `O=C(C[N+]12CCC(CC1)[C@@H](OC(=O)C1(c3ccccc3)CCCCCC1)C2)Nc1ccccc1F` [Example 23, (R)-1-[(2-Fluoro-phenylcarbamoyl)-methyl]-3-(1-phenyl-cycloheptanecarbonyloxy)-1-azonia-bicyclo[2.2.2]octane bromide], the IC50 is under 2 nM.

In turn, `O=C(C[N+]12CCC(CC1)[C@@H](OC(=O)C1(c3ccccc3)CCCCCC1)C2)Nc1cccc(F)c1F` [Example 24, (R)-1-[(2,3-Difluoro-phenylcarbamoyl)-methyl]-3-(1-phenyl-cycloheptanecarbonyloxy)-1-azonia-bicyclo[2.2.2]octane bromide] displayed an IC50 of under 2 nM.

Take `O=C(O[C@H]1C[N+]2(CCc3ccc4c(c3)CCO4)CCC1CC2)C1(c2ccccc2)CCCCCC1` [Example 25, (R)-1-[2-(2,3-Dihydro-benzofuran-5-yl)-ethyl]-3-(1-phenyl-cycloheptanecarbonyloxy)-1-azonia-bicyclo[2.2.2]octane formate]: the IC50 is under 2 nM.

The molecule `O=C(O[C@H]1C[N+]2(CCOc3ccc(F)cc3)CCC1CC2)C1(c2ccccc2)CCCCCC1` [Example 26, (R)-1-[2-(4-Fluoro-phenoxy)-ethyl]-3-(1-phenyl-cycloheptanecarbonyloxy)-1-azonia-bicyclo[2.2.2]octane formate] yielded an IC50 of under 2 nM.

On to `O=C(C[N+]12CCC(CC1)[C@@H](OC(=O)C1(c3ccccc3)CCCCCC1)C2)Nc1ccnnc1` [Example 27, (R)-3-(1-phenyl-cycloheptanecarbonyloxy)-1-(pyridazin-4-ylcarbamoylmethyl)-1-azonia-bicyclo[2.2.2]octane formate], for which the IC50 is 2 to 10 nM.

Take `O=C(C[N+]12CCC(CC1)[C@@H](OC(=O)C1(c3ccccc3)CCCCCC1)C2)Nc1cncc(F)c1` [Example 28, (R)-1-[(5-Fluoro-pyridin-3-ylcarbamoyl)-methyl]-3-(1-phenyl-cycloheptanecarbonyloxy)-1-azonia-bicyclo[2.2.2]octane chloride]: the IC50 lay in the range of 2 to 10 nM.

Regarding `O=C(O[C@H]1C[N+]2(CCOc3cccnc3)CCC1CC2)C1(c2ccccc2)CCCCCC1` [Example 29, (R)-3-(1-Phenyl-cycloheptanecarbonyloxy)-1-[2-(pyridin-3-yloxy)-ethyl]-1-azonia-bicyclo[2.2.2]octane formate], the IC50 was 2 to 10 nM.

Molecule `Cc1cccc(NC(=O)C[N+]23CCC(CC2)[C@@H](OC(=O)C2(c4ccccc4)CCCCCC2)C3)n1` [Example 30, (R)-1-[(6-Methyl-pyridin-2-ylcarbamoyl)-methyl]-3-(1-phenyl-cycloheptanecarbonyloxy)-1-azonia-bicyclo[2.2.2]octane chloride] returned an IC50 of under 2 nM.

`Cc1ccccc1NC(=O)C[N+]12CCC(CC1)[C@@H](OC(=O)C1(c3ccccc3)CCCCCC1)C2` [Example 31, (R)-3-(1-Phenyl-cycloheptanecarbonyloxy)-1-(o-tolylcarbamoyl-methyl)-1-azonia-bicyclo[2.2.2]octane bromide] yielded an IC50 of 2 to 10 nM.

`O=C(O[C@H]1C[N+]2(CCc3cnccn3)CCC1CC2)C1(c2ccccc2)CCCCCC1` [Example 32, (R)-3-(1-Phenyl-cycloheptanecarbonyloxy)-1-(2-pyrazin-2-yl-ethyl)-1-azonia-bicyclo[2.2.2]octane bromide] showed an IC50 of 2 to 10 nM.

The molecule `O=C(O[C@@H]1C[N+]2(CCCOc3ccccc3)CCC1CC2)C1(c2ccccc2)CCCCCC1` [Example 33, (S)-1-(3-Phenoxy-propyl)-3-(1-phenyl-cycloheptanecarbonyloxy)-1-azonia-bicyclo[2.2.2]octane formate] had an IC50 of 2 to 10 nM.

On to `O=C(C[N+]12CCC(CC1)[C@@H](OC(=O)C1(c3ccccc3)CCCCCC1)C2)NCCOc1cccc(F)c1` [Example 34, (R)-1-{[2-(3-Fluoro-phenoxy)-ethylcarbamoyl]-methyl}-3-(1-phenyl-cycloheptanecarbonyloxy)-1-azonia-bicyclo[2.2.2]octane bromide], for which the IC50 lay within 2 to 10 nM.

`O=C(C[N+]12CCC(CC1)[C@@H](OC(=O)C1(c3ccccc3)CCCCCC1)C2)Nc1cc(F)cc(F)c1` [Example 35, (R)-1-[(3,5-Difluoro-phenylcarbamoyl)-methyl]-3-(1-phenyl-cycloheptanecarbonyloxy)-1-azonia-bicyclo[2.2.2]octane bromide] returned an IC50 of 2 to 10 nM.

`COc1ccc(COCC[N+]23CCC(CC2)[C@@H](OC(=O)C2(c4ccccc4)CCCCCC2)C3)cc1` [Example 36, (R)-1-[2-(4-methoxy-benzyloxy)-ethyl]-3-(1-phenyl-cycloheptanecarbonyloxy)-1-azonia-bicyclo[2.2.2]octane formate] came in with an IC50 of 2 to 10 nM.

Molecule `O=C(O[C@H]1C[N+]2(CCOCCc3ccccc3)CCC1CC2)C1(c2ccccc2)CCCCCC1` [Example 37, (R)-1-(2-Phenethyloxy-ethyl)-3-(1-phenyl-cycloheptanecarbonyloxy)-1-azonia-bicyclo[2.2.2]octane bromide] came in with an IC50 of under 2 nM.

Consider `O=C(C[N+]12CCC(CC1)[C@@H](OC(=O)C1(c3ccccc3)CCCCCC1)C2)Nc1c(F)cccc1F` [Example 38, (R)-1-[(2,6-Difluoro-phenylcarbamoyl)-methyl]-3-(1-phenyl-cycloheptanecarbonyloxy)-1-azonia-bicyclo[2.2.2]octane bromide], for which the concentration for half-maximal inhibition (IC50) is under 2 nM.

`CN(C(=O)C[N+]12CCC(CC1)[C@@H](OC(=O)C1(c3ccccc3)CCCCCC1)C2)c1ccccc1` [Example 39, (R)-1-[(Methyl-phenyl-carbamoyl)-methyl]-3-(1-phenyl-cycloheptanecarbonyloxy)-1-azonia-bicyclo[2.2.2]octane formate] showed an IC50 of 2 to 10 nM.

The same assay, now with this note: pIC50.
The molecule `Cc1ccc(NC(=O)C[N+]23CCC(CC2)[C@@H](OC(=O)C2(c4ccccc4)CCCCCC2)C3)cn1` [Example 1, (R)-1-[(6-Methyl-pyridin-3-ylcarbamoyl)-methyl]-3-(1-phenyl-cycloheptanecarbonyloxy)-1-azonia-bicyclo[2.2.2]octane chloride] gave an IC50 of 0.794 nM.

Regarding `O=C(C[N+]12CCC(CC1)[C@@H](OC(=O)C1(c3cccs3)CCCCCC1)C2)Nc1cccnn1` [Example 5, (R)-1-(Pyridazin-3-ylcarbamoylmethyl)-3-(1-thiophen-2-yl-cycloheptanecarbonyloxy)-1-azonia-bicyclo[2.2.2]octane bromide], the IC50 is 0.398 nM.

The record behind these values is patent US20130030001A1 (priority 2008, published 2013).
